In article PMC9553667, “Pharmacokinetic Analysis of Diosgenin in Rat Plasma by a UPLC-MS/MS Approach” (Journal of Analytical Methods in Chemistry, 2022):
Where two headings read alike, the source gives them in different places.

Experiments:
[1] = type: in vitro ADME, rat; conditions: n = 6; for Measured concentration, autosampler stability: processed rat plasma, autosampler 4°C for 24 h; for Measured concentration, short-term stability / Measured concentration, freeze-thaw stability / Measured concentration, long-term stability: rat plasma; for Measured concentration, short-term stability: 25°C for 8 h; for Measured concentration, long-term stability: −20°C for 30 days
Procedure: Standard working solutions of diosgenin and IS were prepared by diluting stock solutions (100 μg/ml) with methanol. A series of calibration standards and QC working solutions were serially diluted with methanol from the standard solution. The working solutions were diluted with drug-free rat plasma at concentrations of 0.5, 1, 5, 50, 200, 1000, and 1,500 ng/ml. Similarly, the QC samples were made up at 5, 50, and 1,000 ng/ml, and IS was 42 ng/ml. All samples were immediately stored at −20°C.
QC samples in rat plasma at three concentrations were analyzed by assessing the stability of diosgenin under four conditions. Long-term stability was investigated by assaying QC samples kept at −20°C for 30 days. The short-term stability of QC samples was assessed for 8-h storage at 25°C. Freeze-thaw stability was determined by analyzing QC samples after three freeze-thaw cycles (−40°C to 25°C). Postpreparative stability was evaluated after a 24-h placement of QC samples in an autosampler at 4°C after preparation. When the accuracy and the precision were both within ±15% after the four tests, the stabilities were guaranteed.

[2] = set-up: method as in PMID 24954725; conditions: rats; cited from earlier work
[3] = set-up: method as in PMID 23073665, PMID 20671764; conditions: cited from earlier work
[4] = in vivo; set-up: species or system Male Sprague-Dawley rats; conditions: rat
Procedure: Liquid chromatography was performed using a UPLC system (Waters Corp., Milford, MA, USA) interfaced to a Q-Trap 5500 triple-quadruple mass spectrometer (AB SCIEX, Beijing, China) equipped with an electrospray ionization (ESI) source, as previously described. The isolation was performed on a Waters ACQUITY UPLC BEH C18 rapid resolution high definition column (2.1 × 50 mm, 1.7 μm) at 35°C. The temperature of the UPLC autosampler was 4°C. The mobile phase was mixed with acetonitrile and water (80 : 20, v/v, containing 0.03% formic acid in water). The flow rate was run at 0.3 ml/min. The injection volume was 2 μl, with a total running time of 5 min.
The positive ion multiple reaction monitoring (MRM) mode was used for quantification analysis in the mass analyzers, with the transitions of m/z 415.2⟶271.2 for diosgenin with fragment or voltage of 71.96 V and 295.2⟶277.1 for the IS with fragment or voltage of 120 V. The collision voltages for diosgenin and IS were 23.03 and 25.92 eV, respectively. The other settings were as follows: capillary voltage, 5.5 kV; source temperature, 500°C; curtain gas, 35 Psi; GS1, 50 Psi; GS2, 50 Psi.
Blank plasma samples were obtained from control Sprague-Dawley rats (n = 6). Briefly, 50 μl of the IS solution and 50 μl of plasma were added to a 0.5-ml Eppendorf tube and vortex mixed for 30 s. Methanol-acetonitrile (250 μl; 50 : 50, v/v) was added to the Eppendorf tube, and then, the sample was vortex mixed for 2 min. After centrifuging at 15,000 rpm for 15 min, the supernatants were injected into the UPLC-MS/MS system.
Male Sprague-Dawley rats (n = 12) weighing 180–220 g were supplied by Beijing Vital River Laboratory Animal Technology Co., Ltd. (Beijing, China; license number SCXK2018-0006). According to the ARRIVE guidelines, all experimental rats were kept under appropriate conditions, including proper humidity, temperature, light, diet, and water. Before starting the experiments, the rats were domesticated for 10 days under laboratory conditions to minimize their suffering. All experimental procedures were performed according to the Animal Care and Use Committee of Chengde Medical University (ethical approval no. CDMULAC-20180410016; Chengde, China). The rats were divided into two groups and were orally administered 100 mg/kg diosgenin and ASD (equivalent to 100 mg/kg diosgenin) suspended in a 0.5% w/v CMC–Na aqueous solution.
The caged rats were fasted (water provided ad libitum) for 12 h before the experiment. Before and after single administration of diosgenin, 0.15 ml blood was collected from the inner canthus under 2.5% isoflurane anesthesia in a heparinized blood collection vessel. The blood collection time points were 0.083, 0.25, 0.5, 0.75, 1, 2, 3, 4, 6, 8, 12, 24, 36, 48, and 72 h. Plasma was obtained after centrifugation for 15 min at 15,000 rpm and then stored at –80°C until analysis.
The pharmacokinetic parameters were calculated using noncompartmental pharmacokinetics data analysis software of DAS 3.0 (Drug and Statistics software, Drug Clinical Research Center, Shanghai University of Traditional Chinese Medicine, Shanghai, China). Relative bioavailability (F) was calculated according to the following formula:(1) F%=AUC0⟶∞diosgenin ASD/AUC0⟶∞diosgenin×100%.

[5] = type: in vitro ADME, rat; conditions: –20°C for 30 days, 25°C for 8 h, three freeze-thaw cycles, 4°C in an autosampler for 12 h
[6] = male, Sprague-Dawley, po, 100 mg/kg

C[C@@H]1CC[C@@]2(OC1)O[C@H]1C[C@H]3[C@@H]4CC=C5C[C@@H](O)CC[C@]5(C)[C@H]4CC[C@]3(C)[C@H]1[C@@H]2C [Diosgenin]
Measured concentration, autosampler stability ([1]; indicated 5 ng/ml): 5.32 ± 0.37 ng/mL
Measured concentration, autosampler stability ([1]; indicated 50 ng/ml): 50.59 ± 3.69 ng/mL
Measured concentration, autosampler stability ([1]; indicated 1000 ng/ml): 1001.01 ± 62.63 ng/mL
Measured concentration, short-term stability ([1]; indicated 5 ng/ml): 5.41 ± 0.33 ng/mL
Measured concentration, short-term stability ([1]; indicated 50 ng/ml): 50.23 ± 2.56 ng/mL
Measured concentration, short-term stability ([1]; indicated 1000 ng/ml): 1000.88 ± 44.34 ng/mL
Measured concentration, freeze-thaw stability ([1]; three freeze-thaw cycles (−40°C to 25°C), indicated 5 ng/ml): 5.98 ± 0.35 ng/mL
Measured concentration, freeze-thaw stability ([1]; three freeze-thaw cycles, indicated 50 ng/ml): 51.69 ± 4.36 ng/mL
Measured concentration, freeze-thaw stability ([1]; three freeze-thaw cycles, indicated 1000 ng/ml): 1002.9 ± 54.44 ng/mL
Measured concentration, long-term stability ([1]; indicated 5 ng/ml): 5.99 ± 0.28 ng/mL
Measured concentration, long-term stability ([1]; indicated 50 ng/ml): 50.02 ± 3.72 ng/mL
Measured concentration, long-term stability ([1]; indicated 1000 ng/ml): 1001.65 ± 42.42 ng/mL
Absolute bioavailability [2]: approximately 7%
Aqueous solubility [3]: poor aqueous solubility
CL/F ([4]; male, Sprague-Dawley, oral, 100 mg/kg diosgenin or equivalent, mean ± SD, n = 6, read-out: CLz/F (converted)): 207 mL/min/kg
Vd/F ([4]; male, Sprague-Dawley, oral, 100 mg/kg diosgenin or equivalent, mean ± SD, n = 6, read-out: Vz/F): 231 ± 161 L/kg
half-life ([4]; male, Sprague-Dawley, oral, 100 mg/kg diosgenin or equivalent, mean ± SD, n = 6, read-out: t1/2z (converted)): 12.3 ± 3.02 h
Cmax [4, 6]: 480 ± 121 ng/mL
MRT last [4, 6]: 22.8 ± 5.55 h
Tmax [4, 6]: 8.73 ± 5.74 h
AUC0-t ([4]; po, 100 mg/kg): 9,302.27 ± 5,013.38 μg/l∗h
AUC0-∞ ([4]; po, 100 mg/kg): 9,598.01 ± 5,151.91 μg/l∗h
Stability in plasma under the storage conditions [5]: remained stable
